“Also recorded” adds a separate entry of the source. Where a SMILES comes first, the peptide text is derived from it. [ ]: non-standard residue; d: D form. NMeThr(4R-Me,4-(CH2)6NHAc) = CN[C@H](C(=O)O)[C@H](O)[C@H](C)CCCCCCNC(C)=O; NMeL = CN[C@@H](CC(C)C)C(=O)O; NMeV = CN[C@H](C(=O)O)C(C)C; dNMeA = CN[C@H](C)C(=O)O; Abu = CC[C@H](N)C(=O)O

Experiment [1] deals with human platelet aggregation. Briefly: Platelet aggregometry (washed platelets, lumi-aggregometer, % Light Transmittance). The format is cell-based. The method, then: (§1) Platelet isolation. Blood (40 ml) was obtained from healthy volunteers who had not taken any drugs known to affect platelet function for 2 weeks prior to the study. Prostacyclin-washed platelet suspensions (2.5×10^8/ml) were prepared in Tyrode's buffer.
Platelet aggregometry. Washed platelets (500 μl/test) were pre-incubated (2 minutes at 37° C.) in a lumi-aggregometer (Chronolog, Havertown, PA, USA) with either vehicle (0.1% DMSO) or CRV431 (0.01-3 μM). Platelet aggregation was then initiated with collagen (1 μg/mL) or thrombin (0.1 U/mL) (Chronolog) and monitored by Aggro-Link software for a further 6 minutes. Extent of platelet aggregation was measured as % Light Transmittance between minutes 2 and 6 and determined by Aggro-Link Software.
(§2) Statistics. Statistical analysis was performed using GraphPad Prism 7.0 software. All means are reported with SEM. One-way ANOVA with Dunnet's multiple comparisons test was performed for aggregation studies, and a Repeated-measures One-way ANOVA with Dunnet's multiple comparisons test was performed for procoagulant platelet formation studies. Each N represents an experiment from an independent blood donor. A P-value less than 0.05 was considered significant.

The subject of experiment [2] is human procoagulant platelet formation (platelet PS exposure). Briefly: Procoagulant platelet formation (annexin-V-FITC binding to exposed phosphatidylserine, flow cytometry). The format is cell-based. On the procedure: as §1
Procoagulant platelet formation studies. […] Procoagulant platelet formation was assessed by measuring annexin-V-FITC binding to exposed phosphatidylserine (PS) by flow cytometry as described previously. Flow cytometry was performed utilizing a BD Fortessa X20 flow cytometer equipped with a blue (488 nm) laser and […] band pass filters to detect FITC. Percent PS-positive platelets were determined post-acquisition using FlowJo software.
as §2
In general terms: Flow cytometry measures light scatter and fluorescence of single cells or particles in a stream.

`CC(=O)Oc1ccccc1C(=O)O` [acetylsalicylic acid, reference compound]: the “inhibition of platelet aggregation (positive control)” value in experiment [1] (single blood donor (FIG. 3B), agonist and concentration not given) is “effectively inhibited aggregation; also recorded: platelet aggregation is inhibited”.
With `CC[C@@H]1NC(=O)[C@H]([C@H](O)[C@H](C)CCCCCCNC(C)=O)N(C)C(=O)[C@H](C(C)C)N(C)C(=O)[C@H](CC(C)C)N(C)C(=O)[C@H](CC(C)C)N(C)C(=O)[C@@H](C)NC(=O)[C@H](C)NC(=O)[C@H](CC(C)C)N(C)C(=O)[C@H](C(C)C)NC(=O)[C@H](CC(C)C)N(C)C(=O)[C@@H](C)N(C)C1=O` [CRV431] (cyclo(A[dA][NMeL][NMeL][NMeV][NMeThr(4R-Me,4-(CH2)6NHAc)][Abu][dNMeA][NMeL]V[NMeL])), the “inhibition of platelet aggregation induced by collagen” value in experiment [1] (collagen 1 μg/mL, CRV431 0.01-3 μM, washed human platelets, N=10, P>0.05) is “did not inhibit platelet aggregation”. The “inhibition of platelet aggregation at the highest concentration tested” value in experiment [1] (single blood donor (FIG. 3A), highest concentration tested) was “does not inhibit platelet aggregation”. In experiment [1] (thrombin 0.1 U/mL, CRV431 0.01-3 μM, washed human platelets, N=9, P>0.05), the “inhibition of platelet aggregation induced by thrombin” value is listed as “did not inhibit platelet aggregation”. Also, the “inhibition of platelet PS-exposure, a marker of procoagulant platelet formation” value in experiment [2] (CRV431 at 1 and 3 μM, activated by collagen and thrombin, N=8, P<0.01 / P<0.001 vs. vehicle control) is listed as “significantly inhibited platelet PS-exposure”. The “percentage of phosphatidylserine (PS)-positive platelets” value in experiment [2] (increasing concentrations of CRV431, induced by collagen (10 μg/ml) and thrombin (0.1 U/ml), flow cytometry) is on record as “reduce the percentage of phosphatidylserine (PS)-positive platelets”.

The record behind these values is patent US20260158103A1, “USE OF CYCLOSPORINE ANALOGUES AS ANTITHROMBOTIC AGENTS” (Hepion Pharmaceuticals, Inc., priority 2020, published 2026).
